We go through 4 molecules from patent US20040092581A1, “Ratjadone derivatives for inhibiting cell growth” (priority 2001, published 2004).

≈ marks a conversion by molar mass, not a printed value. Read-outs that look alike come from different tables or passages of the source. Marks after values point to notes of the source that are not given here.

For test [1], the system named is HM02 (gastroadenocarcinoma). In words: cells. Type of test: cell-based. The settings on record: for CC50: read-out: LC50; for TGI: complete inhibition of cell growth. As for the experimental part:
(§1) The tables below show the influence of the substances 1, 36 and 37 according to the invention on the growth of tumor cells, specifically the growth of the cell lines HM02 (gastroadenocarcinoma), HepG2 (liver carcinoma) and MCF 7 (mammary carcinoma).
(§2) The studies were carried out in accordance with the NCI guidelines (Grever et al., Seminars in Oncology 19 (1992), 622-638). The cells were cultured in 96-well microtitre plates in RPMI 1640 medium with 10% FCS (foetal calf serum). 24 h after dissemination of the cells, the substances 1 and 36 according to the invention dissolved in methanol were added and the cells were incubated for a further 48 h. The cell count was then determined.
(§3) GI50: denotes the concentration that effects a semi-maximum inhibition of the cell growth
(§4) TGI: denotes the concentration that effects complete inhibition of the cell growth

For test [2], the system named is MCF 7 (mammary carcinoma). As to the kind of experiment: cells. The settings on record: for CC50 / GI50: Homo sapiens; for CC50: read-out: LC50; for TGI: complete inhibition of cell growth. Type of test: cell-based. As for the experimental part:
as §1, §2, §3, §4

In a further test the test system is HepG2 (liver carcinoma). As to the kind of experiment: cells. The settings on record: for TGI: complete inhibition of cell growth; for GI50 / CC50 / inhibition at 0.5 µg/mL: Homo sapiens; for CC50: read-out: LC50; for inhibition at 0.5 µg/mL: HEP-G2, at 500 ng/ml, read-out: growth inhibition. The class given is cell-based. As for the experimental part:
as §1, §2, §3, §4

The test system of another test is Glioblastoma cells. In words: Influence on the cell cycle, continuous flow cytometry, glioblastoma cells. The class given is cell-based. The settings on record: 20 nM, 48 h incubation. On the procedure: (§5) Glioblastoma cells and HepG2 cells (liver carcinoma cells) were in each case incubated for 48 h without the substance 1 according to the invention and in nutrient medium containing various concentrations of the substance 1 according to the invention. The cells were harvested and measured by continuous flow cytometry.
(§6) Bookmark not defined. to […]. for glioblastoma cells and […]. to […]. for HepG2 cells, in each case in plot form. In each case the DNA content is indicated on the X axis and the cell count is indicated on the Y axis. Bookmark not defined. to […]. were obtained in each case with 0 nM, 10 nM and 20 nM, respectively, of the preferred substance 1 according to the invention in the culture medium; the results shown in Figures […]. to […]. were obtained with 0 nM, 2 nM and 5 nM, respectively, of the preferred substance 1 according to the invention in the culture medium.
(§7) It can be seen that for both cell lines tested the absolute number and the number of cells in the S and in the G2 phase decreases with increasing concentration of substance 1. […] The preferred substance 1 according to the invention thus arrests the cell cycle in the G1 phase at the dosage suitable for the particular cell type.
(In flow cytometry, cells or beads pass a laser one at a time.)

In test [3] the test system is HepG2 cells (liver carcinoma cells). As to the kind of experiment: Influence on the cell cycle, continuous flow cytometry, HepG2 cells. The settings on record: 5 nM, 48 h incubation. Type of test: cell-based. As for the experimental part:
as §5, §6, §7

Test [4] deals with glioblastoma cells growing on a conventional carrier. As to the kind of experiment: Shape and carrier adhesion of glioblastoma cells. The class given is cell-based. The settings on record: 50 nM. An excerpt:
In addition, the shape of glioblastoma cells growing on a conventional carrier as a function of the concentration of the substance 1 according to the invention was investigated (no figure). In the absence of substance 1 the cells have their typical dendritic shape and adhere to (sic) the carrier surface.

In a further test the test system is HeLa cells (KB3.1). The settings on record: cited from earlier work.
Setting [5] is: MCF7, MCF 7, 48 h incubation, semi-maximum inhibition of cell growth, read-out: GI50.

What is called GI50 is the concentration giving 50% growth inhibition. By TGI is commonly meant the concentration giving total growth inhibition. Low values mean greater sensitivity of the cells, high ones lower sensitivity of the cells. One may read the inhibition as the drop in the measured response relative to a control, in per cent.

Consider `C/C=C/[C@H]1O[C@@H]([C@@H](O)/C=C/C=C(\C)C[C@@H](C)/C=C(C)\C=C\[C@@H]2CC=CC(=O)O2)C[C@H](O)[C@H]1C` [Substance 37], for which the GI50 in test [1] (HM02, 48 h) was determined as 17 ng/mL (≈ 0.0372 µM); in test [2] (setting [5]) it was 25 ng/mL (≈ 0.0547 µM); in the test with HepG2 (liver carcinoma) (HepG2, 48 h) it was 85 ng/mL (≈ 0.186 µM). The CC50 was over 100 ng/mL in test [1] (HM02, 48 h); over 100 ng/mL in test [2] (MCF7, 48 h); over 100 ng/mL with HepG2 (liver carcinoma) (HepG2, 48 h). In addition, the TGI is >100^a ng/ml in test [1] (HM02, 48 h incubation); over 100 ng/mL in test [2] (MCF 7, 48 h incubation); over 100 ng/mL with HepG2 (liver carcinoma) (HEP-G2, 48 h incubation). In test [1] (HM02, read-out: growth inhibition), the inhibition at 0.1 µg/mL came to 90%.

As to `C/C=C/[C@H]1O[C@@H]([C@@H](O)/C=C/C=C(\C)C[C@@H](C)/C=C(C)\C=C\[C@H]2CC=CC(=O)O2)C[C@H](O)[C@H]1C` [Substance 1], the “cell cycle phase distribution (G1 arrest)” value (in the test with Glioblastoma cells; in test [3]) was “virtually all cells tested are in the G1 phase” in each case. In addition, the CC50 in test [1] (HM02, 48 h) was 250 ng/mL (≈ 0.547 µM); in test [2] (MCF7, 48 h) it was under 500 ng/mL; with HepG2 (liver carcinoma) (HepG2, 48 h) it was over 500 ng/mL. The TGI is 24 ng/mL (≈ 0.0526 µM) in test [1] (HM02, 48 h incubation); >500^b ng/ml in test [2] (MCF 7, 48 h incubation); 500^b ng/ml in the test with HepG2 (liver carcinoma) (HEP-G2, 48 h incubation). The 50% growth inhibitory concentration (GI50) is under 5 ng/mL in test [1] (HM02, 48 h incubation, semi-maximum inhibition of cell growth, read-out: GI50); 16 ng/mL (≈ 0.035 µM) in test [2] (setting [5]); 13 ng/mL (≈ 0.0285 µM) in the test with HepG2 (liver carcinoma) (HepG2, HEP-G2, 48 h incubation, semi-maximum inhibition of cell growth, read-out: GI50). In the test with HepG2 (liver carcinoma) (HepG2), the inhibition at 0.5 µg/mL was determined as 80%. Besides, the “cell shape and adhesion to the carrier surface” value in test [4] is “the cells have largely lost their dendritic shape and detach easily from the carrier surface”.

Consider `CC(=C/[C@H](C)C/C(C)=C/C=C/[C@H](O)[C@H]1CCCCO1)/C=C/[C@H]1CC=CC(=O)O1` [Substance 36], for which the GI50 in test [1] (HM02, 48 h) was 5 ng/mL (≈ 0.0129 µM); in test [2] (MCF7, 48 h), 100 ng/mL (≈ 0.259 µM); with HepG2 (liver carcinoma) (HepG2, 48 h), 58 ng/mL (≈ 0.15 µM). In addition, the CC50 was over 500 ng/mL in test [1] (HM02, 48 h); over 500 ng/mL in test [2] (MCF7, 48 h); over 500 ng/mL with HepG2 (liver carcinoma) (HepG2, 48 h). In addition, the TGI in test [1] (HM02, 48 h incubation) was 140 ng/mL (≈ 0.362 µM); in test [2] (MCF 7, 48 h incubation) it was >500^c ng/ml; in the test with HepG2 (liver carcinoma) (HEP-G2, 48 h incubation), >500^c ng/ml. For the same molecule, the inhibition at 0.5 µg/mL in the test with HepG2 (liver carcinoma) (HepG2) was determined as 60%.

Consider `C/C=C/[C@@H]1O[C@H]([C@H](O)/C=C/C=C(\C)C[C@@H](C)/C=C(C)\C=C\[C@H]2CC=CC(=O)O2)C[C@@H](O)[C@@H]1C` [Ratjadon, ratjadon], for which the “IC50, inhibition of growth of HeLa cells (KB3.1)” value in the test on HeLa cells (KB3.1) was 0.05 ng/mL.
